Measurements reported in ChEMBL document CHEMBL1201862, “PubChem BioAssay data set” (2004).
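Grown in 96-well plates, cells were treated for 48 hours with each compound at five concentrations. Insufficient inhibition: endpoint recorded as highest concentration tested. The concentration for 50% growth inhibition is given as GI50.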 Calls of active or inactive are those of the source. Rule as the data show it: active = GI50 up to about 1.1 µM and inactive = higher.

What was measured:
Experiment in all cases: inhibition of tumour cell growth, NCI panel, 48 h
SR = system: SR
CCRF-CEM = system: CCRF-CEM
EKVX = system: EKVX
Hs-578T = system: Hs-578T
HOP-62 = system: HOP-62
CAKI-1 = system: CAKI-1
K562 = system: K562
MDA-MB-435 = system: MDA-MB-435
RPMI-8226 = system: RPMI-8226
A498 = system: A498
MCF7 = system: MCF7
SF-268 = system: SF-268
SF-295 = system: SF-295
SNB-19 = system: SNB-19
NCI-H226 = system: NCI-H226
MDA-MB-231 = system: MDA-MB-231
OVCAR-4 = system: OVCAR-4
RXF 393 = system: RXF 393
A549 = system: A549
Malme-3M = system: Malme-3M
M14 = system: M14
NCI-H460 = system: NCI-H460
NCI-H522 = system: NCI-H522
SW-620 = system: SW-620
HL-60 = system: HL-60
MOLT-4 = system: MOLT-4
ACHN = system: ACHN
786-0 = system: 786-0
LOX IMVI = system: LOX IMVI
HCT-116 = system: HCT-116
NCI/ADR-RES = system: NCI/ADR-RES
HCC 2998 = system: HCC 2998
SK-MEL-28 = system: SK-MEL-28
UACC-257 = system: UACC-257
KM12 = system: KM12
BT-549 = system: BT-549
U-251 = system: U-251
TK-10 = system: TK-10
OVCAR-8 = system: OVCAR-8
DU-145 = system: DU-145
COLO 205 = system: COLO 205
OVCAR-3 = system: OVCAR-3
SK-OV-3 = system: SK-OV-3
HT-29 = system: HT-29
SNB-75 = system: SNB-75
UACC-62 = system: UACC-62
PC-3 = system: PC-3
HOP-92 = system: HOP-92
IGROV-1 = system: IGROV-1
OVCAR-5 = system: OVCAR-5
HCT-15 = system: HCT-15
SN12C = system: SN12C
T47D = system: T47D
UO-31 = system: UO-31
SK-MEL-5 = system: SK-MEL-5
SF-539 = system: SF-539
MDA-N = system: MDA-N
NCI-H23 = system: NCI-H23
SK-MEL-2 = system: SK-MEL-2

## COc1ccc2[nH]c(S(=O)(=O)N3CC(CCl)c4ccc(N)cc43)cc2c1 (stereo unspecified)
SR
  GI50: < 0.01 µM (active)
CCRF-CEM
  GI50: 0.362 µM (active)
EKVX
  GI50: 1.85 µM (inactive)
Hs-578T
  GI50: 0.0953 µM (active)
HOP-62
  GI50: 0.475 µM (active)
CAKI-1
  GI50: 0.0254 µM (active)
K562
  GI50: < 0.01 µM (active)
MDA-MB-435
  GI50: < 0.01 µM (active)
RPMI-8226
  GI50: 0.103 µM (active)
A498
  GI50: 11.2 µM (inactive)
MCF7
  GI50: 0.0184 µM (active)
SF-268
  GI50: 0.0685 µM (active)
SF-295
  GI50: 0.0775 µM (active)
SNB-19
  GI50: 8.22 µM (inactive)
NCI-H226
  GI50: 0.252 µM (active)
MDA-MB-231
  GI50: 0.239 µM (active)
OVCAR-4
  GI50: 2.16 µM (inactive)
RXF 393
  GI50: 0.675 µM (active)
A549
  GI50: 0.146 µM (active)
Malme-3M
  GI50: 0.0984 µM (active)
M14
  GI50: 0.0568 µM (active)
NCI-H460
  GI50: < 0.0189 µM (active)
NCI-H522
  GI50: < 0.01 µM (active)
SW-620
  GI50: 0.0358 µM (active)
HL-60
  GI50: < 0.01 µM (active)
MOLT-4
  GI50: 0.0826 µM (active)
ACHN
  GI50: 8.91 µM (inactive)
786-0
  GI50: 0.0771 µM (active)
LOX IMVI
  GI50: < 0.0229 µM (active)
HCT-116
  GI50: 0.0269 µM (active)
NCI/ADR-RES
  GI50: 0.0624 µM (active)
HCC 2998
  GI50: 2.94 µM (inactive)
SK-MEL-28
  GI50: 13 µM (inactive)
UACC-257
  GI50: 4.14 µM (inactive)
KM12
  GI50: < 0.01 µM (active)
BT-549
  GI50: 6.55 µM (inactive)
U-251
  GI50: 0.4 µM (active)
TK-10
  GI50: 20.6 µM (inactive)
OVCAR-8
  GI50: 0.266 µM (active)
DU-145
  GI50: 0.429 µM (active)
COLO 205
  GI50: 4.42 µM (inactive)
OVCAR-3
  GI50: 0.022 µM (active)
SK-OV-3
  GI50: 0.208 µM (active)
HT-29
  GI50: 1.65 µM (inactive)
SNB-75
  GI50: 0.0718 µM (active)
UACC-62
  GI50: 0.0773 µM (active)
PC-3
  GI50: 0.0973 µM (active)
HOP-92
  GI50: 13.7 µM (inactive)
IGROV-1
  GI50: 0.0547 µM (active)
OVCAR-5
  GI50: 10 µM (inactive)
HCT-15
  GI50: < 0.0254 µM
SN12C
  GI50: 0.32 µM (active)
T47D
  GI50: 34.8 µM (inactive)
UO-31
  GI50: 0.0403 µM (active)
SK-MEL-5
  GI50: < 0.0157 µM (active)
SF-539
  GI50: 0.0478 µM (active)
MDA-N
  GI50: < 0.01 µM (active)

## COc1cc(/C=C2\N=C(c3ccccc3)N(c3nc4ccccc4s3)C2=O)cc(OC)c1OC
SR
  GI50: 11.7 µM (inactive)
EKVX
  GI50: 21.8 µM (inactive)
Hs-578T
  GI50: 17.3 µM (inactive)
HOP-62
  GI50: 24.4 µM (inactive)
CAKI-1
  GI50: 70.6 µM (inactive)
K562
  GI50: 16.5 µM (inactive)
MDA-MB-435
  GI50: 15.6 µM (inactive)
RPMI-8226
  GI50: 0.352 µM (active)
A498
  GI50: 52.7 µM (inactive)
MCF7
  GI50: 31.3 µM (inactive)
SF-268
  GI50: 26.5 µM (inactive)
SF-295
  GI50: 39.5 µM (inactive)
SNB-19
  GI50: 34.2 µM (inactive)
NCI-H226
  GI50: > 100 µM (inactive)
MDA-MB-231
  GI50: 40.3 µM (inactive)
OVCAR-4
  GI50: 23.9 µM (inactive)
RXF 393
  GI50: 18.8 µM (inactive)
A549
  GI50: 29.6 µM (inactive)
M14
  GI50: 31.4 µM (inactive)
NCI-H460
  GI50: 65.5 µM (inactive)
NCI-H522
  GI50: 13.4 µM (inactive)
SW-620
  GI50: 31.3 µM (inactive)
HL-60
  GI50: 60.5 µM (inactive)
MOLT-4
  GI50: 11.7 µM (inactive)
ACHN
  GI50: 20.6 µM (inactive)
786-0
  GI50: 24.8 µM (inactive)
LOX IMVI
  GI50: 36.4 µM (inactive)
HCT-116
  GI50: 35 µM (inactive)
NCI/ADR-RES
  GI50: 20.4 µM (inactive)
HCC 2998
  GI50: 27.4 µM (inactive)
SK-MEL-28
  GI50: 33 µM (inactive)
UACC-257
  GI50: > 100 µM (inactive)
KM12
  GI50: 31.3 µM (inactive)
BT-549
  GI50: 17.5 µM (inactive)
U-251
  GI50: 26.1 µM (inactive)
TK-10
  GI50: > 100 µM (inactive)
OVCAR-8
  GI50: 31 µM (inactive)
DU-145
  GI50: 34.1 µM (inactive)
OVCAR-3
  GI50: 20 µM (inactive)
HT-29
  GI50: 26.9 µM (inactive)
SNB-75
  GI50: 23.1 µM (inactive)
PC-3
  GI50: 50.5 µM (inactive)
NCI-H23
  GI50: 31.1 µM (inactive)
HOP-92
  GI50: 26.2 µM (inactive)
IGROV-1
  GI50: 28.6 µM (inactive)
OVCAR-5
  GI50: > 100 µM (inactive)
HCT-15
  GI50: 30.3 µM
SN12C
  GI50: 26.5 µM (inactive)
T47D
  GI50: 28.9 µM (inactive)
SK-MEL-2
  GI50: 90.8 µM (inactive)
UO-31
  GI50: 58.5 µM (inactive)
SK-MEL-5
  GI50: 49.9 µM (inactive)
SF-539
  GI50: 32.3 µM (inactive)
MDA-N
  GI50: 15.3 µM (inactive)

## C=CCc1cc(-c2n[nH]c(=S)[nH]2)ccc1N/N=N/c1ccc(C(=O)O)cc1
SR
  GI50: 45.9 µM (inactive)
CCRF-CEM
  GI50: 54 µM (inactive)
EKVX
  GI50: > 100 µM (inactive)
Hs-578T
  GI50: 44.6 µM (inactive)
HOP-62
  GI50: 81.3 µM (inactive)
CAKI-1
  GI50: > 100 µM (inactive)
K562
  GI50: 49 µM (inactive)
MDA-MB-435
  GI50: 44.8 µM (inactive)
RPMI-8226
  GI50: 38.5 µM (inactive)
A498
  GI50: > 100 µM (inactive)
MCF7
  GI50: 59.4 µM (inactive)
SF-268
  GI50: 49.7 µM (inactive)
SF-295
  GI50: 52.4 µM (inactive)
SNB-19
  GI50: > 100 µM (inactive)
NCI-H226
  GI50: 42.4 µM (inactive)
MDA-MB-231
  GI50: > 100 µM (inactive)
OVCAR-4
  GI50: 44.7 µM (inactive)
RXF 393
  GI50: 89.5 µM (inactive)
A549
  GI50: > 100 µM (inactive)
Malme-3M
  GI50: 51.6 µM (inactive)
M14
  GI50: > 100 µM (inactive)
NCI-H522
  GI50: 34.1 µM (inactive)
SW-620
  GI50: > 100 µM (inactive)
HL-60
  GI50: 30.8 µM (inactive)
MOLT-4
  GI50: 32.4 µM (inactive)
ACHN
  GI50: 71.3 µM (inactive)
786-0
  GI50: > 100 µM (inactive)
LOX IMVI
  GI50: 74.5 µM (inactive)
HCT-116
  GI50: > 100 µM (inactive)
NCI/ADR-RES
  GI50: > 100 µM (inactive)
SK-MEL-28
  GI50: > 100 µM (inactive)
UACC-257
  GI50: 76.9 µM (inactive)
KM12
  GI50: 40.2 µM (inactive)
BT-549
  GI50: 27.2 µM (inactive)
U-251
  GI50: > 100 µM (inactive)
TK-10
  GI50: > 100 µM (inactive)
OVCAR-8
  GI50: 38.5 µM (inactive)
DU-145
  GI50: > 100 µM (inactive)
COLO 205
  GI50: 22.6 µM (inactive)
OVCAR-3
  GI50: 56 µM (inactive)
SK-OV-3
  GI50: > 100 µM (inactive)
HT-29
  GI50: > 100 µM (inactive)
SNB-75
  GI50: > 100 µM (inactive)
PC-3
  GI50: > 100 µM (inactive)
NCI-H23
  GI50: 48.1 µM (inactive)
HOP-92
  GI50: > 100 µM (inactive)
IGROV-1
  GI50: 83 µM (inactive)
OVCAR-5
  GI50: > 100 µM (inactive)
HCT-15
  GI50: > 100 µM
SN12C
  GI50: > 100 µM (inactive)
T47D
  GI50: 24 µM (inactive)
SK-MEL-2
  GI50: 58.1 µM (inactive)
UO-31
  GI50: > 100 µM (inactive)
SK-MEL-5
  GI50: 16.7 µM (inactive)
MDA-N
  GI50: 66.2 µM (inactive)
